Experimental data taken from patent publication US7008931B2, “Anti-inflammatory and healing medicine based on laminarin sulphate” (Laboratoires GOEMAR S.A., priority 2000, dated 2006).
Values belong to the compound of their own block, whether it stands above or below them.

Columns and labels:
[1] = test system: complement system (obtained from human serum), classical route; experiment: inhibition of the activation of the complement by the classical route (hemolysis of sheep antibody-sensitized erythrocytes); assay type: biochemical
Source text: (§1) Test 1: Measuring of the Anti-Complementary Activity
(§2) The complement system plays a key role in the inflammatory processes induced by infections. The substances which inhibit in vitro the activation of the complement are potentially in vivo anti-inflammatory products.
(§3) The activation of the complement can be carried out by the classical route in which the system antigen-antibody plays a role, or by the so-called alternative route. The anti-complementary activity of laminarin sulphate has been examined in vitro in comparison to that of the above heparin of low molecular weight used as reference (HBPM).
(§4) The evaluation of the anti-complementary reactivity is carried out by photometric or colorimetric measurement of the hemoglobin freed by lysis of the erythrocytes. The erythrocytes used are sheep antibody-sensitized erythrocytes for the classical route and rabbit erythrocytes for the altern route.
(§5) In a first step, the product to be tested and the complement system (obtained from human serum) are put into contact with one another and if necessary incubated during 30 minutes and then, in a second step, they are put into contact with the erythrocytes during 45 minutes.
(§6) The more the test product inhibits the complement, the more the lysis of the erythrocytes is weak and the less the amount of freed hemoglobin is important.
(§7) The anti-complementary activity is expressed in IC (50) (IC meaning “inhibiting concentration”) which designates the concentration expressed in […] of test substance per ml of mixture of the test substance and the serum (μg/ml), concentration which is necessary to inhibit by 50% the activity of the complement.

[2] = test system: complement system (obtained from human serum), alternative route; experiment: inhibition of the activation of the complement by the alternative route (hemolysis of rabbit erythrocytes); assay type: biochemical; conditions: for IC (50), inhibition of the complement by the alternative route: laminarin sulphate without incubation
Source text: as §1, §2, §3, §4, §5, §6, §7

[3] = test system: polymorphnuclear neutrophiles (PMN); experiment: chemotaxy of granulocytes, Boyden Chamber test with C5a (human serum activated with Zymosan); assay type: cell-based
Source text: Test 2: Examination of the Influence on the Chemiotaxy of the Granulocytes
The polymorphnuclear neutrophiles or PMN are cells which are characteristic of the infiltrate of the acute inflammation. The movement or the migration of neutrophiles from inside of the blood vessels in direction of the tissues is provoked by molecules which are called chemotaxins. Two chemotaxins are particularly important in the case of the polynuclear neutrophiles, i.e. the fragment C5a of the complement and the interleukin 8 (IL-8). The movement of the neutrophiles can be aleatory (which means that a so called chemokinesis occurs) or can be oriented along the length of a gradient of chemotaxins.
Consequently, the ability of laminarin sulphate to inhibit the chemotaxy of […] was examined; this study has been carried out in vitro by way of the test called Test of the Boyden Chamber (a variant of the Boyden Chamber having 96 holes was used) the fragment C5a in the form of human serum activated with Zymosan having been used as chemiotaxin. As shown on FIG. 2, the Boyden Chamber comprises 2 compartments respectively 1 and 2 which are separated by a membrane 3 consisting of polycarbonate (dimension of the pores 3 μm). The pores of the said membrane authorize the active passing of the cells but not their passive diffusion.
The polymorphnuclear neutrophiles PMN are placed in the higher compartment 2 together with the substance to be tested at various doses. The C5a is placed in the lower compartment.
The measurement of the inhibition of the chemotaxy is carried out by numbering the cells which have been attracted in the lower compartment. For the numbering of the cells, they are lysed with Triton X, and the free peroxidase is then quantified by adding 2,2-azino-di-[3-ethylbenzo-thiazoline] sulfonate or ABTS marketed by Boehringer Mannheim and by measuring at 405 nm the extinction of the colored product which has been formed.

P-selectin = biological target: T1, P-selectin (Homo sapiens, UniProt P16109); experiment: cellular adhesion on immobilized P-selectin under static conditions (U 937 cells); assay type: cell-based
T1 sequence (P16109 42-830): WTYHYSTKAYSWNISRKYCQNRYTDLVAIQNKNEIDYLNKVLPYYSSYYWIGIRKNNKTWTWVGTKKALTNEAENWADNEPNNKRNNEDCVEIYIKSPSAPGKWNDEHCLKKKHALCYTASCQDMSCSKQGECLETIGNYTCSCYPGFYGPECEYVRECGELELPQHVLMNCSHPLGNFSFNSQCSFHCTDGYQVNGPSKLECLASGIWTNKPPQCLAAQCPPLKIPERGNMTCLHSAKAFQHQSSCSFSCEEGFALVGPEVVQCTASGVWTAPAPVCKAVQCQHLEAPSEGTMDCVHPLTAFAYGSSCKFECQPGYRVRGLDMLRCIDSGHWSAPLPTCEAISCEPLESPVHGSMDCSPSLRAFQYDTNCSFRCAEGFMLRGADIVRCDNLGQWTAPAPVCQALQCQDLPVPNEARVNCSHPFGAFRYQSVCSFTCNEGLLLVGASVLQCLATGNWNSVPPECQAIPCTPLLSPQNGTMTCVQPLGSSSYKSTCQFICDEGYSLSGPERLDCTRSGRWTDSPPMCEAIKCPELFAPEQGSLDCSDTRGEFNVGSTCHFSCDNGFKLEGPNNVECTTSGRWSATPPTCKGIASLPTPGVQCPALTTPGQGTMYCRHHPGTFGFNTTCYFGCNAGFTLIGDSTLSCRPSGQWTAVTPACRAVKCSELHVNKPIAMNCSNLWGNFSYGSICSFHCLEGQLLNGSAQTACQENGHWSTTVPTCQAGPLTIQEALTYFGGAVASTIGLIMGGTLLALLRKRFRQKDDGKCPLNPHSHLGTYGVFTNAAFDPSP
Source text: (§8) Test 3: Influence on the Adhesion of the Cells Induced by Selectin
(§9) Consequently, the effect of laminarin sulphate has been examined through the direct quantification of the cells bond to the selectins immobilized on microplates.
(§10) The influence of the laminarin sulphate on the adhesion of the cells due to the selectins has been studied first under static conditions as schematically shown on FIG. 3a (E-selectins or P-selectins) and 3b (L-selectins). The selectin has been deposited on a microtitration plate; in that respect and in the case of L-selectin the human chimera Fc of L-selectin has been used. Then, the plate was incubated with the test substance and with cells carrying the ligands of the corresponding selecting, that is to say in the case of L-selectin the human cellular line LS 180 of the adenocarcinoma of the colon and in the case of the selectins P and E the human lymphomic cellular line U 937.
(§11) The number of cells bond to the microtitration plate after washing and subsequent lysis of these cells was determined and their lactate dehydrogenase content was determined by way of an enzymatic reaction.

[4] = test system: human chimera Fc of L-selectin; experiment: cellular adhesion on immobilized L-selectin under static conditions (LS 180 cells); assay type: cell-based
Source text: as §8, §9, §10, §11

[5] = test system: intrinsic system of the coagulation; experiment: coagulation test APTT; assay type: biochemical
Source text: (§12) The anti-coagulant activity which depends from the concentration of laminarin sulphate has been determined in comparison with that of heparin in the classical coagulation tests APTT or “Aktivierte partielle Thromboplastin-Zeit”, of the duration of the prothrombin, by way of the test so called “HEPTEST” and the duration of the thrombin. The APTT reflects an interaction with the intrinsic system of the coagulation while the duration of prothrombin reflects an interaction with the extrinsic coagulation; the so called “HEPTEST” is a classical test for the measurement of the inhibiting activity of heparin with respect to the Xa factor and the duration of thrombin corresponds to the last step of the coagulation, i.e. the formation of fibrins induced by the thrombin. In contradiction with that of heparin, the activity of laminarin sulphate in the so called “HEPTEST” is more than 20 times weaker. […] The specific activity (IU/mg) in the APTT represents 30% of the activity of heparin and in the case of the duration of thrombin it represents 60%. In order to totally prevent the coagulation it is convenient to use in the case of APTT a concentration 4 times higher and in the case of the duration of thrombin a concentration 20 times higher.

Xa factor = experiment: HEPTEST coagulation test; assay type: biochemical; conditions: relative to heparin
Source text: as §12

extrinsic coagulation = experiment: duration of the prothrombin coagulation test; assay type: biochemical
Source text: as §12

thrombin [6] = experiment: duration of the thrombin coagulation test; assay type: biochemical
Source text: as §12

factor Xa = experiment: specific anti-factor Xa test using chromogeneous substrates; assay type: biochemical
Source text: (§13) The effect in the case of the duration of thrombin can be considered as being due to an inhibition of thrombin dependent from the cofactor II heparin. […] For that reason and due to the better effect in the systems of anti-inflammatory tests, the profile “utility/risk” moves in the case of laminarin sulphate unequivocally in the sense of an anti-inflammatory effect. It follows that the anti-inflammatory properties of laminarin sulphate can be advantageously used without the apprehension of undesirable side effects on coagulation.

thrombin [7] = experiment: specific anti-thrombin test using chromogeneous substrates; assay type: biochemical
Source text: as §13

[8] = test system: edema of the ear of the mouse induced with croton oil; experiment: edema of the ear of the mouse induced with croton oil; assay type: in vivo; conditions: for equipotent amount per ear for inhibition of inflammation: topical, with 70 μg croton oil, 4 hours
Experimental: The topic activity which inhibits inflammation and which is presented by laminarin sulphate, has been tested in the model constituted by the edema of the ear of the mouse induced with croton oil. The control was indomethacin. The tested animals were male mice of the type Swiss CD-1 whose weight was 20 to 25 g. Three groups of tests were carried out on three groups of animals. The first group is a negative control group wherein only the pro-inflammatory agent consisting of croton oil was used. The second group is a positive control group and comprises the use of croton oil and of indomethacin (200 nMol/ear which corresponds to 71.56 μg/ear). The third group relates to the use of laminarin sulphate and comprises the use of 70 μg of croton oil and of increasing amounts of laminarin sulphate (100, 250, 500, 750 and 1000 μg/ear).
In the case of the control groups, of the group of reference and of the group comprising the use of the different concentrations of laminarin sulphate, 10 mice were used each time. […] On each ear (surface of about 1 cm^2) 70 μg of croton oil were applied at the same time as indomethacin or laminarin sulphate or dexamethasone. Four hours later, samples having a diameter of 7 mm were cut up and weighed.
For the statistical exploitation an analysis of the variance (ANOVA) as well as the Scheffe test were carried out.

[9] = test system: MDA-MB-231, MCF, U937, LS180 cellular lines; experiment: cytotoxicity tests (5 days proliferation with crystal violet or MTT, acute LDH kit); assay type: cell-based, human; conditions: highest tested concentration, 100 μg/ml
Experimental: In order to test cytoxicity, the following cellular lines were used: MDA-MB-231 (human mammary carcinoma); MCF (human mammary carcinoma); U937—(human lymphoma); and, LS180 (human adenocarcinoma).
The test used is a 5 days proliferation test and the determination of the number of living cells was carried out by coloration with crystallin violet or crystallin purple. A 5 day proliferation test with determination of the number of living cells using the test MTT has also been carried out. Finally the acute cytotoxicity has been determined using a kit marketed by the company Boehringer Mannheim under the title “Cytotoxicity detection kit” (LDH).

human chimera Fc of L-selectin, sequence (P14151 39-318 limits assumed, change not shown): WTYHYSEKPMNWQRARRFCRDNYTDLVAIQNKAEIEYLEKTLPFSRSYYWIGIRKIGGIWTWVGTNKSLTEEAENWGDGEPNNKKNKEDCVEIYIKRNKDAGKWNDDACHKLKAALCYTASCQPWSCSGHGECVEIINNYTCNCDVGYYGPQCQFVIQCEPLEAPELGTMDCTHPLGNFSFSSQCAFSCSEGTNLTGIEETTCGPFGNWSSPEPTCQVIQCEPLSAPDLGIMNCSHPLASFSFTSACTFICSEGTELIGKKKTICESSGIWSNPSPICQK

Inhibition expressed in % of the cellular adhesion on P-selectin (P-selectin; 5 μg/ml): 50 ± 2%
Inhibition expressed in % of the cellular adhesion on P-selectin (P-selectin; 25 μg/ml): 63 ± 3%
Compound: laminarin sulphate
IC (50), inhibition of the activation of the complement by the classical way [1]: 0.54 ± 0.06 µg/mL
times more active on the inhibition of the complement than heparin [1]: 80 times
times more active on the inhibition of the complement than heparin [2]: 10 times
prolongation of the activity of the complement ([2]; dose of 2.4 μg/ml): 50%
prolongation of the activity of the complement ([2]; laminarin sulphate at low concentrations): more than 100%
IC (50), inhibition of the complement by the alternative route [2]: 43 µg/mL
inhibition of the cellular migration ([3]; 1.67 μg/ml): 50%±6%
Inhibition expressed in % of the cellular adhesion on L-selectin ([4]; 5 μg/ml): 33 ± 1%
Inhibition expressed in % of the cellular adhesion on L-selectin ([4]; 25 μg/ml): 89 ± 10%
concentration to totally prevent the coagulation, times higher than heparin ([5]; APTT): 4 times
specific activity (IU/mg) in the APTT as % of the activity of heparin ([5]; relative to heparin): 30%
activity in the HEPTEST, times weaker than heparin (Xa factor): more than 20 times
anti-coagulant effect on the duration of prothrombin (extrinsic coagulation): no pronounced anti-coagulant effect
concentration to totally prevent the coagulation, times higher than heparin (thrombin [6]; duration of thrombin): 20 times
specific activity (IU/mg) in the duration of thrombin as % of the activity of heparin (thrombin [6]; relative to heparin): 60%
anti-factor Xa activity dependent from anti-thrombin (factor Xa): does not present a significant anti-factor Xa activity
anti-thrombin activity (thrombin [7]): nor an anti-thrombin activity
times more active than indomethacin from the molar point of view ([8]; 25 nMol laminarin sulphate vs 200 nMol indomethacin): nine
inhibiting activity when applied after croton oil instead of simultaneously ([8]; control experiment, applied after croton oil): no difference
efficiency compared with dexamethasone ([8]; equimolar concentration of 0.12 mmol/ear): more efficient than dexamethasone
equipotent amount per ear for inhibition of inflammation [8]: 250 μg per ear
cytotoxic effect [9]: no cytotoxic effect was noticed

Inhibition expressed in % of the cellular adhesion on P-selectin (P-selectin; 5 μg/ml): 12 ± 5%
Inhibition expressed in % of the cellular adhesion on P-selectin (P-selectin; 25 μg/ml): 30 ± 4%
Compound: heparin [reference compound]
IC (50), inhibition of the activation of the complement by the classical way [1]: 43.7 ± 1.9 µg/mL
IC (50), inhibition of the complement by the alternative route [2]: 464 µg/mL
inhibition of the cellular migration ([3]; 1.67 μg/ml): not inhibited
inhibition of the cellular migration ([3]; 4.2 μg/ml): 10%±5%
Inhibition expressed in % of the cellular adhesion on L-selectin ([4]; 5 μg/ml): 15 ± 5%
Inhibition expressed in % of the cellular adhesion on L-selectin ([4]; 25 μg/ml): 32 ± 3%

Compound: COc1ccc2c(c1)c(CC(=O)O)c(C)n2C(=O)c1ccc(Cl)cc1 [indomethacin, reference compound]
equipotent amount per ear for inhibition of inflammation [8]: 72 μg per ear
